The values that follow come from patent US8871753B2, “Macrocyclic compounds and their use as kinase inhibitors” (Incyte Corporation, priority 2008, dated 2014).

As a reminder, the pIC50 is the negative decadic logarithm of the IC50, by convention in mol/L.

Structures are written as SMILES. pIC50: −log10 of the molar value. Where a name gives a salt, the structure may show the parent alone. Read-outs that look alike come from different tables or passages of the source. A value given as a limit tells only on which side of the number the result lay.

Type in all cases: biochemical
Assay [1] has as its target T1, human JAK1 (a.a. 837-1142) (Homo sapiens, UniProt P23458).
T1 construct: human JAK1 (a.a. 837-1142); His tag (N); made in house; host or cells: insect cells (baculovirus)
Nature of the assay: In vitro JAK kinase assay (HTRF, phosphorylation of a biotinylated peptide), JAK1. To be noted: read-out: JAK1 IC50. Summed up: (§1)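 Kinase reactions ran at room temperature for 1 h with ATP matched per isoform (JAK1 90 μM, JAK2 30 μM, JAK3 3 μM). After an EDTA stop, the phosphorylated biotin-peptide was read by HTRF using Eu-Py20 and SA-APC after 40 min binding.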
On the technique in general: In TR-FRET formats the signal depends on donor and acceptor labels being close together.

Assay [2] addresses T2, human JAK2 (a.a. 828-1132) (Homo sapiens, UniProt O60674).
T2 construct: JAK2 (a.a. 828-1132); His tag (N); made in house; host or cells: insect cells (baculovirus)
Nature of the assay: In vitro JAK kinase assay (HTRF, phosphorylation of a biotinylated peptide), JAK2. A digest of the protocol: as §1

The target in assay [3] is T3, human JAK3 (a.a. 781-1124) (Homo sapiens, UniProt P52333).
T3 construct: JAK3 (a.a. 781-1124); His tag (N); made in house; host or cells: insect cells (baculovirus)
T3 sequence (P52333 781-1124): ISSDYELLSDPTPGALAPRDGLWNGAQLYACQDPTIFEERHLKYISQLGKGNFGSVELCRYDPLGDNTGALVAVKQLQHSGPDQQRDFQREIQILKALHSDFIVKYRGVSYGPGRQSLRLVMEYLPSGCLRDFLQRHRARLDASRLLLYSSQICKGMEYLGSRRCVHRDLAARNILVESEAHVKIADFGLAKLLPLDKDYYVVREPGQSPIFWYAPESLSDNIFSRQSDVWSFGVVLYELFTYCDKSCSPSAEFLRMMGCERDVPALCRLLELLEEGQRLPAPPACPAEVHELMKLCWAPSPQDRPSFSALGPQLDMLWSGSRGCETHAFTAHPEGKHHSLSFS
Nature of the assay: In vitro JAK kinase assay (HTRF, phosphorylation of a biotinylated peptide), JAK3. A digest of the protocol: as §1

Another assay has as its target TYK2 (Homo sapiens, UniProt P29597). Nature of the assay: TYK2 kinase inhibition (Table A1).
In assay [4] the target is T4, Recombinant Human Anaplastic Lymphoma Kinase (Homo sapiens, UniProt Q9UM73).
T4 construct: purchased Invitrogen, Carlsbad, Calif
T4 sequence (Q9UM73 19-1620): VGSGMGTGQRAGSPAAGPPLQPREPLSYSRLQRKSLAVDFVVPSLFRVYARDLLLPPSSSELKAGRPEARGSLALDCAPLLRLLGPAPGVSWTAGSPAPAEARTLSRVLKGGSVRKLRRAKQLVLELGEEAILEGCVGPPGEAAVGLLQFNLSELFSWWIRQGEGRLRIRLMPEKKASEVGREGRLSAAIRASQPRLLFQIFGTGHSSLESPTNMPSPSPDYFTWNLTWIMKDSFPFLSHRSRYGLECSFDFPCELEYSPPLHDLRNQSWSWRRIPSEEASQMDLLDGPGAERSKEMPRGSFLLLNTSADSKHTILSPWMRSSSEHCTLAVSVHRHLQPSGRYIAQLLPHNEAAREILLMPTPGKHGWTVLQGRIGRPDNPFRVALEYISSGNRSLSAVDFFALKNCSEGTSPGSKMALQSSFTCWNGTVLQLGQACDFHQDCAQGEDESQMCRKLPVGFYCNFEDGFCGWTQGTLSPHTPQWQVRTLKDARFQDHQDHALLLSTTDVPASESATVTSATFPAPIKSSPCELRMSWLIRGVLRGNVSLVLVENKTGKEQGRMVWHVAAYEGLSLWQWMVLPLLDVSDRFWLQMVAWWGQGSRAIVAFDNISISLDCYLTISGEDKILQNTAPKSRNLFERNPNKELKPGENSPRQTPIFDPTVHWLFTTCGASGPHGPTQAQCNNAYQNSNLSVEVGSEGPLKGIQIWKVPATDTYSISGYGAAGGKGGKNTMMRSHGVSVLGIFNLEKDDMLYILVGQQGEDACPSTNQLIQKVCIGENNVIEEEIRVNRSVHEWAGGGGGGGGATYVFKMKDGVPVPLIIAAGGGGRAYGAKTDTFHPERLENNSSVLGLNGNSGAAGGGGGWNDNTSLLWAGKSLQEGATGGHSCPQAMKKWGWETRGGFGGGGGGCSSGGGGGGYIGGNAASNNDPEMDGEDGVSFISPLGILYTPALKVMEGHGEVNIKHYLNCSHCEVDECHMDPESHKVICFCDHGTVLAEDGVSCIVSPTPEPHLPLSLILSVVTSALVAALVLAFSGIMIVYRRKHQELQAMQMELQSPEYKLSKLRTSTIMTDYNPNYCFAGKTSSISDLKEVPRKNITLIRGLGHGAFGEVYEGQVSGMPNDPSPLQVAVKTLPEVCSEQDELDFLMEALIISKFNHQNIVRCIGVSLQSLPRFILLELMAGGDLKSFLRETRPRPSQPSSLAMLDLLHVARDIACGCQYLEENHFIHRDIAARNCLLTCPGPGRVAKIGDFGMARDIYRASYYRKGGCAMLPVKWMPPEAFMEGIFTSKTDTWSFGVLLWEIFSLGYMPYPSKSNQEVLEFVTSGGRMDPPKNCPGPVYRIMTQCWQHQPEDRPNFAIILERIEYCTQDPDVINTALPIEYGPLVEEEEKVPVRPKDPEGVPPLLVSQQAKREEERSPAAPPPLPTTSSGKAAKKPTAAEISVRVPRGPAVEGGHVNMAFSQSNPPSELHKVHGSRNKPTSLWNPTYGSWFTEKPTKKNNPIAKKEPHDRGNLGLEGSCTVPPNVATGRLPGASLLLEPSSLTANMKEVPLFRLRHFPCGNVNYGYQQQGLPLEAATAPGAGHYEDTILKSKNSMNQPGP
Nature of the assay: ALK HTRF kinase assay. To be noted: for pIC50: Table B1, cells without percent sign. A digest of the protocol: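 Recombinant human ALK phosphorylated a biotinylated synthetic peptide. Phosphotyrosine was detected by TR-FRET between a Eu-labelled anti-phosphotyrosine antibody and streptavidin-allophycocyanin. IC50 values came from fitting signal against inhibitor concentration to a four-parameter logistic equation with variable Hill slope.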

[5] abbreviates: compound at a concentration of 500 nM or 1 mM (not specified), cells shown as percentage.
[6] abbreviates: method AA1 (90 μM ATP) or AA2 (1000 μM ATP), not stated per value.
[7] abbreviates: method AA1 (30 μM ATP) or AA2 (1000 μM ATP), not stated per value.
Setting [8] is: method AA1 (3 μM ATP) or AA2 (1000 μM ATP), not stated per value.
[9] abbreviates: compound at 500 nM or 1 mM, 90 μM ATP.
Setting [10] is: percentage inhibition of the example compound at a concentration of 500 nM or 1 mM (not specified which).

Chain of TYK2 (P29597 whole entry): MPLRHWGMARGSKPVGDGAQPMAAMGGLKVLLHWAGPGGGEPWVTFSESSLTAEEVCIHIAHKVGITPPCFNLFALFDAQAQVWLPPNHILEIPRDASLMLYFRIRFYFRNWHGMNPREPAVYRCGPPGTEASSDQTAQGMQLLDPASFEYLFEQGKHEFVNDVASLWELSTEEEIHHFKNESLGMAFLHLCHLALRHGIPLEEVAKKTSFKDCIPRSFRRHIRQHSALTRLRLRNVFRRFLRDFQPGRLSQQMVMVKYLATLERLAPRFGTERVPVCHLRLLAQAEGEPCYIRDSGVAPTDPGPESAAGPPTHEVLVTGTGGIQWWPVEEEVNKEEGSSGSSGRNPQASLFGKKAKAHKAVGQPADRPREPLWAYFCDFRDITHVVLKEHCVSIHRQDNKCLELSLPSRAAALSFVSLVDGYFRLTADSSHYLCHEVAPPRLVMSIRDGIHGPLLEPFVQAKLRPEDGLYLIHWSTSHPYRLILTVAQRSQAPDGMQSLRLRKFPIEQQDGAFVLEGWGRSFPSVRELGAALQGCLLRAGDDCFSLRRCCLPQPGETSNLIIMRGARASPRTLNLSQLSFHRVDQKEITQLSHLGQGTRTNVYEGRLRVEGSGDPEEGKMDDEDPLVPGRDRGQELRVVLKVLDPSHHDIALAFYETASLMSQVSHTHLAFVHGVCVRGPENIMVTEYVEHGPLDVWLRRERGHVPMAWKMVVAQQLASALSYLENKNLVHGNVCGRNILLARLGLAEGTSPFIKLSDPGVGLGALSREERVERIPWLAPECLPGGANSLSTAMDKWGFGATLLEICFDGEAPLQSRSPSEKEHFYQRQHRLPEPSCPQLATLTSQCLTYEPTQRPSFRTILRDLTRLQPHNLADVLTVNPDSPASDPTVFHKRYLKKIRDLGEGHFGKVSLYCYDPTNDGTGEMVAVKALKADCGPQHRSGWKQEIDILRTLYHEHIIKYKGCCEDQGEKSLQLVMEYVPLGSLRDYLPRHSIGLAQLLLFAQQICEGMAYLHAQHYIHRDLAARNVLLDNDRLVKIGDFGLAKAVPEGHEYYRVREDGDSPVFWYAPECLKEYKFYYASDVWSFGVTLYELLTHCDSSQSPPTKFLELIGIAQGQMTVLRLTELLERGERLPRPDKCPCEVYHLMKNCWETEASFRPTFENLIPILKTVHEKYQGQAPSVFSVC
T1 sequence (P23458 849-1154): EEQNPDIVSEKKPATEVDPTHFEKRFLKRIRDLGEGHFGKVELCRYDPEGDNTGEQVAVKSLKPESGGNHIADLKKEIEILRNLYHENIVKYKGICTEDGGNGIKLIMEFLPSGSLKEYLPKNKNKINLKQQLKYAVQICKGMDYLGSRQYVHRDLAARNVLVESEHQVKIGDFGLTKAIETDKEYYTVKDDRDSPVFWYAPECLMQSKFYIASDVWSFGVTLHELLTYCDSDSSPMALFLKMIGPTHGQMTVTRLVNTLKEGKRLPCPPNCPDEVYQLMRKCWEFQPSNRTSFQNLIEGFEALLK
T2 sequence (O60674 828-1132): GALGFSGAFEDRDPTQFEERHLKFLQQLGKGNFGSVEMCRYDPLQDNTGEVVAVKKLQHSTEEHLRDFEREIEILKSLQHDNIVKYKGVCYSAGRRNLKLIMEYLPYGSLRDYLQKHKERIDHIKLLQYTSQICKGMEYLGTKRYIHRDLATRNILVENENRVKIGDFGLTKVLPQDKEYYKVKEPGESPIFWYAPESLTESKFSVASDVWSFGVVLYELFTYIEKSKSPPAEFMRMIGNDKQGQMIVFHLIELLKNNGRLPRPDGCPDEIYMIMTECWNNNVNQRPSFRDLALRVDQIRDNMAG

Turning to `O=C(Nc1ccc2cc1CCc1cccc(c1)Nc1ncc(Cl)c(n1)N2)Nc1ccccc1-c1ccccc1` [Example B130, N-Biphenyl-2-yl-N′-[6-chloro-2,4,8,22-tetraazatetracyclo[14.3.1.1(3,7).1(9,13)]docosa-1(20),3(22),4,6,9(21),10,12,16,18-nonaen-12-yl]urea trifluoroacetate], the pIC50 was 7.96 in assay [1] (Table B1), 7.96 in assay [2] (Table B1), 6.48 in assay [3] (Table B1) and 7.19 at TYK2 (Table B1). Besides, in assay [4] (setting [5]), the “ALK % of inhibition at a concentration of 500 nM or 1 mM” value (“ALK % of inhibition” below) was determined as 0%.
As to `O=C(Nc1ccc2cc1CCc1cccc(c1)Nc1ncc(Cl)c(n1)N2)Nc1c(Cl)cccc1Cl` [Example B113, N-[6-Chloro-2,4,8,22-tetraazatetracyclo[14.3.1.1(3,7).1(9,13)]docosa-1(20), 3(22),4,6,9(21),10,12,16,18-nonaen-12-yl]-N′-(2,6-dichlorophenyl)urea trifluoroacetate], the negative logarithm of the IC50 (pIC50) in assay [1] (Table B1) is 8.33; in assay [2] (Table B1), 8.13; in assay [3] (Table B1), 7.32; against TYK2 (Table B1), 7.77. Moreover, the “ALK % of inhibition” value in assay [4] (setting [5]) was 9.5%.
For `CC(C)(C)OC(=O)N1CC[C@H](NC(=O)Nc2ccc3cc2CCc2cccc(c2)Nc2ncc(Cl)c(n2)N3)C1` [Example B166, tert-Butyl (3S)-3-[({[6-chloro-2,4,8,22-tetraazatetracyclo[14.3.1.1(3,7).1(9,13)]docosa-1(20),3(22),4,6,9(21),10,12,16,18-nonaen-12-yl]amino}carbonyl)amino]pyrrolidine-1-carboxylate], the pIC50 is 8.44 in assay [1] (Table B1), 8.13 in assay [2] (Table B1), 7.41 in assay [3] (Table B1) and 7.77 against TYK2 (Table B1). In addition, in assay [4] (setting [5]), the “ALK % of inhibition” value is on record as 15%.
For the compound `N[C@@H](CO)C(=O)Nc1ccc2cc1CCc1cccc(c1)Nc1ncc(Cl)c(n1)N2` [Example A109, (2S)-2-Amino-N-[6-chloro-2,4,8,22-tetraazatetracyclo[14.3.1.1(3,7).1(9,13)]docosa-1(20),3(22),4,6,9(21),10,12,16,18-nonaen-12-yl]-3-hydroxypropanamide bis(trifluoroacetate)], the pIC50 was 8.30 in assay [1] (setting [6]), 7.96 in assay [2] (setting [7]), 8.14 in assay [3] (setting [8]) and 8.12 on TYK2. In assay [4] (setting [9]), the “ALK % of inhibition” value turned out to be 33%.
Take `O=C(CC1CCN(C(=O)c2nccs2)CC1)Nc1ccc2cc1CCc1cncc(c1)Nc1ncc(Cl)c(n1)N2` [Example A133, N-[6-Chloro-2,4,8,18,22-pentaazatetracyclo[14.3.1.1(3,7).1(9,13)]docosa-1(20),3(22),4,6,9(21),10,12,16,18-nonaen-12-yl]-2-[1-(1,3-thiazol-2-ylcarbonyl)piperidin-4-yl]acetamide bis(trifluoroacetate)]: the pIC50 in assay [1] (setting [6]) is 8.68; in assay [2] (setting [7]), 7.96; in assay [3] (setting [8]), 7.14; against TYK2, 8.26. Moreover, the “ALK % of inhibition” value in assay [4] (setting [9]) is on record as 32%.
Turning to `CN(C(=O)Nc1ccc2cc1CCc1cccc(c1)Nc1ncc(Cl)c(n1)N2)[C@H]1CCN(Cc2ccccc2)C1` [Example B283, N-[(3S)-1-Benzylpyrrolidin-3-yl]-N′-[6-chloro-2,4,8,22-tetraazatetracyclo[14.3.1.1(3,7).1(9,13)]docosa-1(20),3(22),4,6,9(21),10,12,16,18-nonaen-12-yl]-N-methylurea], the negative-log IC50 (pIC50) was 6.85 in assay [1] (Table B1), 6.78 in assay [2] (Table B1), less than 6.00 in assay [3] (Table B1) and 6.26 against TYK2 (Table B1). In addition, the “ALK % of inhibition” value in assay [4] (setting [5]) was determined as 30%.
On to `CS(=O)(=O)N1CCC(NC(=O)Nc2ccc3cc2CCc2cccc(c2)Nc2ncc(Cl)c(n2)N3)CC1` [Example B182, N-[6-Chloro-2,4,8,22-tetraazatetracyclo[14.3.1.1(3,7).1(9,13)]docosa-1(20),3(22),4,6,9(21),10,12,16,18-nonaen-12-yl]-N′-[1-(methylsulfonyl)piperidin-4-yl]urea trifluoroacetate], for which the pIC50 in assay [1] (Table B1) was 8.92; in assay [2] (Table B1), 8.21; in assay [3] (Table B1), 7.36; at TYK2 (Table B1), 7.77. Moreover, the “ALK % of inhibition” value in assay [4] (setting [5]) is listed as 29%.
In the case of `O=C(Nc1ccc2cc1CCc1cncc(c1)Nc1ncc(Cl)c(n1)N2)N[C@H]1CCN(c2nc3cccnc3o2)C1` [Example B275, N-[6-Chloro-2,4,8,18,22-pentaazatetracyclo[14.3.1.1(3,7).1(9,13)]docosa-1(20),3(22),4,6,9(21),10,12,16,18-nonaen-12-yl]-N′-[(3S)-1-[1,3]oxazolo[5,4-b]pyridin-2-ylpyrrolidin-3-yl]urea tris(trifluoroacetate)], the pIC50 in assay [1] (Table B1) is 7.85; in assay [2] (Table B1) it was 6.89; in assay [3] (Table B1) it was less than 5.00; on TYK2 (Table B1) it was 6.46. In addition, the “ALK % of inhibition” value in assay [4] (setting [5]) was 9.8%.
In the case of `CN1CCN(C(=O)c2cc3cc(c2)Nc2nc(ncc2Cl)Nc2cccc(c2)CC3)CC1` [Example B8, 6-Chloro-11-[(4-methylpiperazin-1-yl)carbonyl]-2,4,8,22-tetraazatetracyclo[14.3.1.1(3,7).1(9,13)]docosa-1(20),3(22),4,6,9(21),10,12,16,18-nonaene trifluoroacetate], the pIC50 is 6.30 in assay [1] (Table B1); 6.46 in assay [2] (Table B1); less than 6.00 in assay [3] (Table B1); less than 6.00 against TYK2 (Table B1); less than 6.00 in assay [4].
As for `O=C(Nc1cc2cc(c1)Nc1nc(ncc1Cl)Nc1cccc(c1)CC2)c1ccccn1` [Example B201, N-[6-Chloro-2,4,8,22-tetraazatetracyclo[14.3.1.1(3,7).1(9,13)]docosa-1(20),3(22),4,6,9(21),10,12,16,18-nonaen-11-yl]pyridine-2-carboxamide trifluoroacetate], the negative-log IC50 (pIC50) was 6.92 in assay [1] (Table B1); 6.39 in assay [2] (Table B1); 6.34 in assay [3] (Table B1); less than 6.00 at TYK2 (Table B1); less than 5.00 in assay [4].
Turning to `Cn1ccc(S(=O)(=O)NCCNC(=O)Nc2ccc3cc2CCc2cccc(c2)Nc2ncc(Cl)c(n2)N3)n1` [Example B332, N-{2-[({[6-chloro-2,4,8,22-tetraazatetracyclo[14.3.1.1(3,7).1(9,13)]docosa-1(20),3(22),4,6,9(21),10,12,16,18-nonaen-12-yl]amino}carbonyl)amino]ethyl}-1-methyl-1H-pyrazole-3-sulfonamide trifluoroacetate], the pIC50 in assay [1] (Table B1) is 8.52; in assay [2] (Table B1), 8.47; in assay [3] (Table B1) it was 7.59; on TYK2 (Table B1), 8.09. For the same compound, the “ALK % of inhibition” value in assay [4] (setting [10]) turned out to be 23%.
With `Cc1ncoc1C(=O)N1CCC(CN(C)Cc2ccc3cc2CCc2cncc(c2)Nc2ncc(Cl)c(n2)N3)CC1` [Example B347, 1-[6-Chloro-2,4,8,18,22-pentaazatetracyclo[14.3.1.1(3,7).1(9,13)]docosa-1(20),3(22),4,6,9(21),10,12,16,18-nonaen-12-yl]-N-methyl-N-({1-[(4-methyl-1,3-oxazol-5-yl)carbonyl]piperidin-4-yl}methyl)methanamine tris(trifluoroacetate)], the pIC50 in assay [1] (Table B1) is 7.24; in assay [2] (Table B1) it was 6.43; in assay [3] (Table B1), less than 6.40; against TYK2 (Table B1) it was less than 6.40. Further, the “ALK % of inhibition” value in assay [4] (setting [10]) was 45%.
